How the values were obtained:
Type in all cases: in vivo
TG-mice [1] = assay: Novel context recognition (NCR); conditions: 1 mg/kg oral, 3 months, untreated TG 49.2±2.6%
Description: Novel context recognition (NCR): Day 1-3 was Habituation (once/day). Two contexts (containers) A and B with similar field area were very different in shape. Context A was a rectangular, Context B was a circular container. The containers were open at the top with bedding to minimize stress and with video camera on top to record animal behavior. Each animal was placed in Context A without toys for 5 min, then back to home cage for 30 min. Then the animal was placed in Context B without toys for 5 min.
Day 4 was for Familiarization: Two different sets of toys were used as the familiar objects referred to as FO1 and FO2 respectively. […]
Day 5 (24 h from familiarization): Retention Trials was performed to determine the memory retention of each animal for familiarized objects. […] The test was videotaped and analyzed offline. The time spent exploring the familiar object (FO1) and exchanged object (FO2) were calculated where exploration equals touching the object with nose or paws or sniffing within 1.5 cm of the object. […]
(§1) Mice were divided into four groups: (1) C57BL/6 wt male mice were treated with oral administration of 2% sucrose; (2) C57B1/6 wt male mice with oral administration of 1 mg/kg D-P in 2% sucrose; (3) TG-mice with oral administration of 2% sucrose; and (4) TG-mice with 1 mg/kg D-P in 2% sucrose. […] Next, we evaluated NCR (FIG. 3C). The RI was calculated.

TG-mice [2] = assay: Novel Object Recognition (NOR); conditions: 1 mg/kg oral in 2% sucrose, 3 months, untreated TG 51.2±3.6%, wt 68.9±6.8%
Description: 4) Memory Test Protocol. Novel Object Recognition (NOR): Day 1-3: Habituation (once/day). Top open containers (open field) were used with video camera to record animal behavior. An animal was put into a container with no objects for 5 min. Context remained the same for each animal.
Day 4, Familiarization: Two identical objects (toys-FO: familiar object) were put into the container at specific positions. Then animals were put into the container to explore the objects for 5 min. Retention Trial 1.5 h: Each animal was placed in its home cage for 1.5 h after the familiarization. One of the toys was replaced with a new toy (NO, novel object and very different from FO). […]
Day 5, Retention Trial 24 h: We placed another new toy (NO) along with an original object (FO) in the container. […] We scored the animal behavior offline according to how long the animal spent exploring each object. The Object Recognition Index (ORI) was calculated, such that ORI=(tn−tf)/(tn+tf), where tf and tn represent times of exploring the familiar and novel objects, respectively.
as §1

[3] = Six-month long-term toxicity evaluation (metabolic rate); conditions: male Sprague Dawley rats, gavage 1, 10 and 500 mg/kg daily, six months
Description: To evaluate D-P's safety, we tested dosages of 1, 10, and 500 mg/kg (500 time high concentration) of D-P in rats. Sprague Dawley rats, male, body weight starting at 175±5 g, were used in this study. Control group rats were gavaged SUC 20 ml/kg, and D-P group rats were gavaged 1, 10, and 500 mg/kg D-P every day for six months.

gephyrin = assay: Gephyrin level measurement (Western blot, hippocampus and cortex); conditions: TG-mice, 1 mg/kg oral daily
Description: 3) Gephyrin level measurement: Gephyrin amounts in control (group housing), AD, and AD+D-P group were determined. All mice brains were taken and prepared for assays. SDS-PAGE and Western blot analysis. Proteins were separated on SDS-polyacrylamide gels (Sigma) using the Bio-Rad Mini-Protean 3 cell system. Proteins were transferred on a polyvinylidene difluoride (PDVF) membrane (Sigma) and blocked with 4% non-fat dry milk. Blots were incubated overnight at 4° C. with rabbit anti-gephyrin (Santa Cruz, 1:200) and mouse anti-β-actin (Sigma, 1:1000), followed by HRP-conjugated secondary antibodies (1:5000) for two hours at room temperature. Bands were detected using ECL detection kit (Sigma) and exposed to X-ray films. Bands were analyzed by densitometry using ImageQuant5.2 (Molecular Dynamics), normalized to the corresponding β-actin signal and compared.
Gephyrin is the key scaffolding protein that organizes the inhibitory postsynaptic receptor density involving GABAAR clustering at postsynaptic sites. Gephyrin not only has a structural function at GABAergic synaptic sites, but also plays a crucial role in synaptic dynamics. Therefore, we examined the protein levels of gephyrin in the hippocampus (left) and cortex (right) in the TG-mice and in D-P treated TG-mice compared to wt control. […]

**Q.** Which “Recognition Index (RI), novel context” value (TG-mice [1]) does the source give for “piperidin-1-ium (2R,3R)-2-(3,4-dihydroxy-5-oxidophenyl)-3,5-dihydroxy-4-oxochroman-7-olate [D-P]” here?
**A.** reversed the RI in TG-mice

**Q.** What about the “Object Recognition Index (ORI)” value (TG-mice [2]) of the same substance?
**A.** 70.1±6.8%

**Q.** And the metabolic rate [3]?
**A.** did not alter the metabolic rate

**Q.** What about the gephyrin levels (gephyrin; 1 month) of the same substance?
**A.** partly recovered

**Q.** What about the gephyrin levels (gephyrin; 3 months) of the same substance?
**A.** restored to control levels

— US12194021B2, “Modified herbal compositions for neuromodulation” (University of Southern California, priority 2021, dated 2025)
